Consider one compound from patent publication US9040687B2, “Process for the preparaton of novel porphyrin derivatives and their use as PDT agents and fluorescence probes” (COUNCIL OF SCIENTIFIC AND IDUSTRIAL RESEARCH, priority 2010, dated 2015).

What all share (experiment): MTT assay, cytotoxicity by cellular proliferation
What all share (assay type): cell-based

One test has as its system Mia PaCa. The note with it: Homo sapiens, MIA PaCa-2, cytotoxicity in the light.
The next test has as its system HeLa. The note with it: Homo sapiens, cytotoxicity in the light.
A further test concerns HCT 116. The note with it: Homo sapiens, cytotoxicity in the light.
The subject of a further test is SCC 172. The note with it: SCC172, cytotoxicity in the light.
In another test the test system is SiHa. Particulars: Homo sapiens, cytotoxicity in the light.
The subject of a further test is HaCaT. Particulars: Homo sapiens, cytotoxicity in the light.
A further test relates to MCF 7. The note with it: Homo sapiens, MCF7, cytotoxicity in the light.
Test [1] deals with Breast cancer cells (MDA MB 231). The note with it: Homo sapiens, cytotoxicity in the light. The procedure:
[Worded in the source for another cell line; this cell line is reported under the same test.] (§1) 3, (4,5-Dimethylthiazol-2-yl)-2,5-diphenyltetrazolium bromide (MTT) assay is a standard colorimetric assay for measuring cellular proliferation (cell growth). It was used to determine cytotoxicity of the porphyrin derivatives of the general formulae 1. Human cervical oral cancer cells (SCCl31 cells) (5×10^3 cells well^−1) were added to wells of two 96 well microtiter plate. One for dark cytotoxicity and another for light cytotoxicity with 150 μL DMEM (Dulbecco's Modified Eagle Medium) with 10% serum and incubated for 24 h. Then added 3.125 to 25 μM of porphyrin derivatives of the general formulae 1 in serial dilution (stock 100 mM diluted using DPBS (Dulbecco's Phosphate Buffered Saline) for test, 0.025% DMSO (dimethyl sulphoxide) for control and incubated for 3 h and irradiated in one plate using sodium vapor lamp (70 w for 15 min) while the other plate was kept in dark. After photoirradiation, DPBS was aspirated and 150 μL DMEM with 10% serum was added to each well and incubated is for 48 h. After 48 h of incubation, removed the plates from the incubator and added 10 µL of MIT (5 mg/ml stock) to each well of the plate. […] Read the absorbance at 570 nm. Percentage growth inhibition was calculated as % Growth inhibition=(control-test)/control)×100 […]

In test [2] the test system is oral cancer cells (SCC 131). The note with it: Homo sapiens, SCC131, cytotoxicity in the light. The procedure:
as §1

By IC50 is commonly meant the point on the concentration scale where inhibition reaches its midpoint. For `Oc1cccc(-c2c3nc(c(-c4cccc(O)c4)c4ccc([nH]4)c(-c4cccc(O)c4)c4nc(c(-c5cccc(O)c5)c5ccc2[nH]5)CC4)C=C3)c1` [FOSCAN, 5, 10, 15, 20-tetrakis (meta-hydroxyphenyl)-chlorin, reference compound], the IC50 in the test with Mia PaCa worked out at 11 µM; in the test with HeLa, 22 µM; in the test with HCT 116, 9 µM; in the test on SCC 172, 12.5 µM; in the test on SiHa, 22.5 µM; with HaCaT, 8 µM. Moreover, the IC50 with MCF 7 was found to be 13 µM; in test [1], 13.5 µM; in test [2], 16 µM.
